According to patent publication US10716814B2, “Mesenchymal stem cells and uses therefor” (Mesoblast International Sárl, priority 2004, dated 2020):

How the values were obtained:
CD4+ Th cells = test: Generation of TH1/TH2 cells in presence or absence of MSCs, IFN-γ and IL-4 by ELISA; assay type: cell-based, human; conditions: MSCs cultured with TH1 cells in presence of PGE2 inhibitor
Description: Peripheral blood mononuclear cells (PBMCs) were plated at 2×10^6 cells/ml for 45 min. at 37°C. in order to remove monocytes. Non-adherent fraction was incubated in the presence of plate-bound anti-CD3 ([…]) and anti-CD28 (1 μg/ml) antibodies under TH1 (IL-2 (4 ng/ml)+IL-12 (5 ng/ml)+anti-IL-4 (1 μg/ml)) or TH2 (IL-2 (4 ng/ml)+Il-4 (4 ng/ml)+anti-IFN-γ (1 μg/ml)) conditions for 3 days in the presence or absence of MSCs. The cells were washed and then re-stimulated with PHA (2.5 μg/ml) for another 24 or 48 hours, following which levels of IFN-γ and IL-4 were measured in culture supernatants by ELISA (R&D Systems, Minneapolis, Minn.).

DC1 cells = test: MSC co-culture with LPS-activated DC1 cells, TNF-α secretion; assay type: cell-based, human; conditions: MSCs cultured with activated DC1 in presence of PGE2 inhibitor
Excerpt: Peripheral blood mononuclear cells (PBMCs) were obtained from Poietics Technologies, Div of Cambrex Biosciences (Walkersville, Md.). Precursors of dendritic cells (DCs) of monocytic lineage (CD1c^+) were positively selected from PBMCs using a 2-step magnetic separation method according to Dzionek, et al., J. Immunol., Vol. 165, pg. 6037 (2000). Briefly, CD1c expressing B cells were magnetically depleted of CD19^+ cells using magnetic beads, followed by labeling the B-cell depleted fraction with biotin-labeled CD1c (BDCA1^+) and anti-biotin antibodies and separating them from the unlabeled cell fraction utilizing magnetic columns according to the manufacturer's instructions (Miltenyi Biotech, Auburn, Calif.). Precursors of DCs of plasmacytoid lineage were isolated from PBMCs by immuno-magnetic sorting of positively labeled antibody coated cells (BDCA2^+) (Miltenyi Biotech, Auburn, Calif.).
In most experiments, human MSCs and DCs were cultured in equal numbers for various time periods and cell culture supernatant collected and stored at −80° C. until further evaluation. […] The non-adherent cell fraction (purified T cells) was then collected from the cultures, washed twice and re-stimulated with PHA for another 24 hours, following which cell culture supernatants were harvested and analyzed for secreted IFN-γ and IL-4 by ELISA. […]

MSCs = test: Secreted factors (PGE2, IL-6, VEGF, pro-MMP-1) in culture supernatant of MSCs; assay type: cell-based; conditions: Homo sapiens, 24 hour culture, read-out: inhibition of PGE2 secretion by hMSCs
Description: Using previously characterized human MSCs, the levels of Interleukin-6 (IL-6), VEGF, lipid mediator prostaglandin E2 (PGE2), and matrix metalloproteinase 1 (pro-MMP-1) were analyzed in culture supernatant of MSCs cultured for 24 hours in the presence or absence of PBMCs (MSC to PBMC ratio 1:10).

SMILES	IFN-γ secretion from TH1 cells (CD4+ Th cells)	TNF-α secretion by DC1s (DC1 cells)	inhibition at 5 µM (MSCs; NS-398 5 μM)	inhibition at 4 µM (MSCs; indomethacin 4 μM)
CS(=O)(=O)Nc1ccc([N+](=O)[O-])cc1OC1CCCCC1 [NS-398]	increased	increased TNF-α secretion	60 to 90%	
COc1ccc2c(c1)c(CC(=O)O)c(C)n2C(=O)c1ccc(Cl)cc1 [indomethacin]	increased	increased TNF-α secretion		60 to 90%
